# Molecular target: TBK1 (Homo sapiens (Human), UniProt Q9UHD2)
# Test: TBK1 low ATP kinase assay (in vitro assay 1)
# Assay type: biochemical
# Conditions: in vitro assay 1, read-out: TBK1 low ATP kinase assay IC50
# Sequence of TBK1 (Q9UHD2 whole entry): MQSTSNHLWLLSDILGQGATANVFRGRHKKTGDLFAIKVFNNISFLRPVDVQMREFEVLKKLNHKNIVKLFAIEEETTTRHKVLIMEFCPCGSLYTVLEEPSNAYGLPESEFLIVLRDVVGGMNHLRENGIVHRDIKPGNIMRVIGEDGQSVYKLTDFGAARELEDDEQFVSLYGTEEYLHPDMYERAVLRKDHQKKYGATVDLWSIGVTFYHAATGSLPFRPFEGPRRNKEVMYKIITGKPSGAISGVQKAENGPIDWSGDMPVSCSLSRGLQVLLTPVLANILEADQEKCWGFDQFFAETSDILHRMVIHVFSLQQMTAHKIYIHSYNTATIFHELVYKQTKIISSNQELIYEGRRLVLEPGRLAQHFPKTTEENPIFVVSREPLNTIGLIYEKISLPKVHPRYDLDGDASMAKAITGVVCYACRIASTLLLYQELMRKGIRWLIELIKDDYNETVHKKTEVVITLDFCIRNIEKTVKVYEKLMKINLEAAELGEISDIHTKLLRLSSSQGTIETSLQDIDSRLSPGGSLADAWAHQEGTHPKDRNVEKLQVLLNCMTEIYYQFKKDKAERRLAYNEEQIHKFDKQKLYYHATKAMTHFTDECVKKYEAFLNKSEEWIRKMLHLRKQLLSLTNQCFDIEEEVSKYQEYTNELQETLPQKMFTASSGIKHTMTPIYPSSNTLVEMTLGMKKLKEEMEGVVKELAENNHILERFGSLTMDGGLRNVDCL
row,IC50 [nM],Compound
1,42.1,"CC(C)Nc1ncnc(-c2ccc3nc(Nc4cc(CN5CCN(C(=O)OC(C)(C)C)CC5)ccn4)[nH]c3c2)c1F [Example 193.01, tert-butyl 4-{[2-({6-[5-fluoro-6-(propan-2-ylamino)pyrimidin-4-yl]-1H-benzimidazol-2-yl}amino)pyridin-4-yl]methyl}piperazine-1-carboxylate]"
2,384,"COc1cnc(C)cc1-c1ccc2nc(Nc3cc(CN4CCN(C(=O)C5CCC5)CC4)ccn3)[nH]c2c1 [Example 07.03, cyclobutyl{4-[(2-{[6-(5-methoxy-2-methylpyridin-4-yl)-1H-benzimidazol-2-yl]amino}pyridin-4-yl)methyl]piperazin-1-yl}methanone]"
3,16.5,"CC1CC1Cn1cc(-c2ccc3nc(Nc4cc(C(C)N5CCN(C(=O)OC(C)(C)C)CC5)ccn4)[nH]c3c2)cn1 (single isomer, unassigned) [Example 56.01, tert-butyl 4-[(1R or 1S)-1-(2-{[6-(1-{[(1RS,2RS)-2-methylcyclopropyl]methyl}-1H-pyrazol-4-yl)-1H-benzimidazol-2-yl]amino}pyridin-4-yl)ethyl]piperazine-1-carboxylate]"
4,36.4,"COc1cnc(Cl)nc1-c1ccc2nc(Nc3cc(CN4CCN(C(=O)OC(C)(C)C)CC4)ccn3)[nH]c2c1 [Example 63.01.01, tert-butyl 4-[(2-{[6-(2-chloro-5-methoxypyrimidin-4-yl)-1H-benzimidazol-2-yl]amino}pyridin-4-yl)methyl]piperazine-1-carboxylate]"
5,160,"Cc1noc(-c2ccc3nc(Nc4cc(CN5CCN(C(=O)c6cccs6)CC5)ccn4)[nH]c3c2)n1 [Example 101.24, {4-[(2-{[6-(3-methyl-1,2,4-oxadiazol-5-yl)-1H-benzimidazol-2-yl]amino}pyridin-4-yl)methyl]piperazin-1-yl}(thiophen-2-yl)methanone]"
6,41.3,"CCOc1ncnc(-c2ccc3nc(Nc4cc(CN5CCN(C(=O)C6CC6)CC5)ccn4)[nH]c3c2)c1OC [Example 167.03, cyclopropyl{4-[(2-{[6-(6-ethoxy-5-methoxypyrimidin-4-yl)-1H-benzimidazol-2-yl]amino}pyridin-4-yl)methyl]piperazin-1-yl}methanone]"
7,0.33,"CC(c1ccnc(Nc2nc3ccc(-c4cc(N5CCCC5)ncn4)cc3[nH]2)c1)N1CCN(C(=O)C2CC2)CC1 (single isomer, unassigned) [Example 117.02, cyclopropyl(4-{(1R or 1S)-1-[2-({6-[6-(pyrrolidin-1-yl)pyrimidin-4-yl]-1H-benzimidazol-2-yl}amino)pyridin-4-yl]ethyl}piperazin-1-yl)methanone]"
8,35.7,"CCOc1nccc(-c2ccc3nc(Nc4cc(CN5CCN(C(=O)OC(C)(C)C)CC5)ccn4)[nH]c3c2)n1 [Example 26.01.01, tert-butyl 4-[(2-{[6-(2-ethoxypyrimidin-4-yl)-1H-benzimidazol-2-yl]amino}pyridin-4-yl)methyl]piperazine-1-carboxylate]"

# Second part, the compound before the results:
row,Compound,IC50 [nM]
1,"O=C(C1CC1)N1CCN(Cc2ccnc(Nc3nc4ccc(-c5cc(OCC6(C(F)(F)F)CC6)ncn5)cc4[nH]3)c2)CC1 [Example 158.03, cyclopropyl{4-[(2-{[6-(6-{[1-(trifluoromethyl)cyclopropyl]methoxy}pyrimidin-4-yl)-1H-benzimidazol-2-yl]amino}pyridin-4-yl)methyl]piperazin-1-yl}methanone]",13
2,"Cc1noc(-c2ccc3nc(Nc4cc(CN5CCN(C(=O)CC(F)(F)F)C[C@H]5C)ccn4)[nH]c3c2)n1 [Example 16.03.02, 3,3,3-trifluoro-1-{(3R)-3-methyl-4-[(2-{[6-(3-methyl-1,2,4-oxadiazol-5-yl)-1H-benzimidazol-2-yl]amino}pyridin-4-yl)methyl]piperazin-1-yl}propan-1-one]",63.1
3,"Cc1cc(-c2ccc3nc(Nc4cc(CN5CCN(C(=O)C6CCC6)CC5)ccn4)[nH]c3c2)ncn1 [Example 30.01.02, cyclobutyl{4-[(2-{[6-(6-methylpyrimidin-4-yl)-1H-benzimidazol-2-yl]amino}pyridin-4-yl)methyl]piperazin-1-yl}methanone]",18.5
4,"O=C(C1CC1)N1CCN(Cc2ccnc(Nc3nc4ccc(-c5ncnc(NC6CC6)c5F)cc4[nH]3)c2)CC1 [Example 192.03, cyclopropyl(4-{[2-({6-[6-(cyclopropylamino)-5-fluoropyrimidin-4-yl]-1H-benzimidazol-2-yl}amino)pyridin-4-yl]mnethyl}piperazin-1-yl)methanone]",8.3
5,"COc1c(NCC2CC2)ncnc1-c1ccc2nc(Nc3cc(C(C)N4CCN(C(=O)C5CC5)CC4)ccn3)[nH]c2c1 (single isomer, unassigned) [Example 109.02.02, cyclopropyl{4-[(1R or 1S)-1-{2-[(6-{6-[(cyclopropylmethyl)amino]-5-methoxypyrimidin-4-yl}-1H-benzimidazol-2-yl)amino]pyridin-4-yl}ethyl]piperazin-1-yl}methanone]",2
6,"CN(C)c1cc(-c2ccc3nc(Nc4cc(CN5CCN(C(=O)C6CC6)CC5)ccn4)[nH]c3c2)ncn1 [Example 143.03, cyclopropyl(4-{[2-({6-[6-(dimethylamino)pyrimidin-4-yl]-1H-benzimidazol-2-yl}amino)pyridin-4-yl]methyl}piperazin-1-yl)methanone]",4.8
7,"COc1c(NC2CCC2)ncnc1-c1ccc2nc(Nc3cc(C(C)N4CCN(C(=O)C5CC5)CC4)ccn3)[nH]c2c1 (single isomer, unassigned) [Example 114.03, (4-{(1R or 1S)-1-[2-({6-[6-(cyclobutylamino)-5-methoxypyrimidin-4-yl]-1H-benzimidazol-2-yl}amino)pyridin-4-yl]ethyl}piperazin-1-yl)(cyclopropyl)methanone]",8.07
8,"CCn1cc(-c2ccc3nc(Nc4cc(CN5CCN(C(=O)CC(F)(F)F)CC5)ccn4)[nH]c3c2)cn1 [Example 38.02, 1-{4-[(2-{[6-(1-ethyl-1H-pyrazol-4-yl)-1H-benzimidazol-2-yl]amino}pyridin-4-yl)methyl]piperazin-1-yl}-3,3,3-trifluoropropan-1-one]",50.4
9,"COc1c(NCC2CC2)ncnc1-c1ccc2nc(Nc3cc(CN4CCN(C(=O)OC(C)(C)C)CC4)ccn3)[nH]c2c1 [Example 109.01.01, tert-butyl 4-({2-[(6-{6-[(cyclopropylmethyl)amino]-5-methoxypyrimidin-4-yl}-1H-benzimidazol-2-yl)amino]pyridin-4-yl}methyl)piperazine-1-carboxylate]",9.2
10,"O=C(C1CC1)N1CCN(Cc2ccnc(Nc3nc4ccc(-c5nc(C6CC6)c[nH]5)cc4[nH]3)c2)CC1 [Example 43.03, cyclopropyl{4-[(2-{[6-(4-cyclopropyl-1H-imidazol-2-yl)-1H-benzimidazol-2-yl]amino}pyridin-4-yl)methyl]piperazin-1-yl}methanone]",696
11,"CC(C)(C)OC(=O)N1CCN(Cc2ccnc(Nc3nc4ccc(-c5cnc(Br)cn5)cc4[nH]3)c2)CC1 [Example 140.01, tert-butyl 4-[(2-{[6-(5-bromopyrazin-2-yl)-1H-benzimidazol-2-yl]amino}pyridin-4-yl)methyl]piperazine-1-carboxylate]",13
12,"Cn1ccc(-c2ccc3nc(Nc4cc(CN5CCN(C(=O)C6CC6)CC5)ccn4)[nH]c3c2)n1 [Example 40.03, cyclopropyl{4-[(2-{[6-(1-methyl-1H-pyrazol-3-yl)-1H-benzimidazol-2-yl]amino}pyridin-4-yl)methyl]piperazin-1-yl}methanone]",988
